In patent US20250122147A1, “ARYL CYCLOHEXANEDIONE DERIVATIVE OR SALT THEREOF, PEST CONTROL AGENT CONTAINING SAME, AND METHOD FOR USE THEREOF” (ADEKA Corporation, priority 2021, published 2025):

Each compound was assayed on Plutella xylostella (assay: Insecticidal test against Plutella xylostella). Details: 500 ppm drug solution; Chinese cabbage seedlings with eggs immersed about 30 sec; six days after immersion; 25° C.
Text: Six days after the immersion in the drug solution, the number of surviving insects was examined. […] In triplicate using 10 per plot.
For `O=C1CC(c2ccc(C(F)(F)F)cc2)CC(SCc2ccccc2)=C1C(=O)Nc1ccc(F)cc1` (stereo not shown) [1-225], the “corrected mortality, rating of assessment” value (shortened to “corrected mortality, rating”) was “D or higher”. With `O=C1CC(c2ccc(C(F)(F)F)cc2)CC(O)=C1C(=O)Nc1ccccc1F` (stereo not shown) [1-38, N-(2-fluorophenyl)-5-hydroxy-3-oxo-4′-(trifluoromethyl)-1,2,3,6-tetrahydro-[1,1′-biphenyl]-4-carboxamide] the “corrected mortality, rating” value was “D or higher”. For `O=C1CC(c2ccc(C(F)(F)F)cc2)CC(O)=C1C(=O)Nc1cccc(Cl)c1` (stereo not shown) [1-21], the “corrected mortality, rating” value was “D or higher”. `O=C1CC(c2ccc(C(F)(F)F)cc2)CC(O)=C1C(=O)NC1CCCCC1` (stereo not shown) [1-11] was tested, and the “corrected mortality, rating” value was “D or higher”. For `O=C1CC(c2ccc(C(F)(F)F)nc2)CC(O)=C1C(=S)Nc1ccc(F)cn1` (stereo not shown) [1-231], the “corrected mortality, rating” value was “D or higher”. In the case of `CS(=O)(=O)c1ccc(C2CC(=O)C(C(=O)Nc3ccc(Cl)cc3)=C(O)C2)cc1` (stereo not shown) [1-232], the “corrected mortality, rating” value is reported as “D or higher”. With `O=C1CC(c2ccc(C(F)(F)F)cc2)CC(O)=C1C(=S)Nc1ccccc1` (stereo not shown) [1-93] the “corrected mortality, rating” value was “D or higher”. For `O=C1CC(c2ccc(C(F)(F)F)cc2)CC(O)=C1C(=O)NC1CC1` (stereo not shown) [1-144], the “corrected mortality, rating” value was “D or higher”. With `O=C1CC(c2ccc(SC(F)(F)F)cc2)CC(O)=C1C(=O)Nc1ccc(F)cc1` (stereo not shown) [1-213] the “corrected mortality, rating” value was “D or higher”. `O=C1CC(c2ccc(C(F)(F)F)cc2)CC(O)=C1C(=O)Nc1ccc(C(F)(F)F)cn1` (stereo not shown) [1-142] was tested, and the “corrected mortality, rating” value was “D or higher”. For `O=C1CC(c2cccs2)CC(O)=C1C(=O)Nc1cccs1` (stereo not shown) [1-75], the “corrected mortality, rating” value was “D or higher”. In the case of `O=C1CC(c2ccc(C(F)(F)F)cc2)CC(O)=C1C(=O)Nc1ccc(S(F)(F)(F)(F)F)cc1` (stereo not shown) [1-184], the “corrected mortality, rating” value is reported as “D or higher”. In the case of `O=C1CC(c2ccc(C(F)(F)F)cc2)CC(O)=C1C(=S)Nc1cccc(F)c1` (stereo not shown) [1-95], the “corrected mortality, rating” value is reported as “D or higher”. In the case of `N#Cc1cccc(NC(=O)C2=C(O)CC(c3ccc(C(F)(F)F)cc3)CC2=O)c1` (stereo not shown) [1-34], the “corrected mortality, rating” value is reported as “D or higher”. `NC(=O)c1ccc(C2CC(=O)C(C(=O)Nc3ccc(F)cc3)=C(O)C2)cc1` (stereo not shown) [1-62] was tested, and the “corrected mortality, rating” value was “D or higher”. For `CSc1ccc(C2CC(=O)C(C(=O)Nc3ccc(Cl)cc3)=C(O)C2)cc1` (stereo not shown) [1-234], the “corrected mortality, rating” value was “D or higher”. `O=C1CC(c2ccc(C(F)(F)F)nc2)CC(O)=C1C(=O)Nc1ccc(OC(F)(F)F)cc1` (stereo not shown) [1-70] was tested, and the “corrected mortality, rating” value was “D or higher”. For `O=C1CC(c2ccc(C(F)(F)F)cc2)CC(O)=C1C(=O)NCc1ccccc1` (stereo not shown) [1-12], the “corrected mortality, rating” value was “D or higher”. In the case of `Cc1cc(Cl)ccc1NC(=O)C1=C(O)CC(c2ccc(C(F)(F)F)cc2)CC1=O` (stereo not shown) [1-16], the “corrected mortality, rating” value is reported as “D or higher”. With `O=C1CC(c2ccc(C(F)(F)F)cc2)CC(O)=C1C(=O)Nc1ccc(F)nn1` (stereo not shown) [1-162] the “corrected mortality, rating” value was “D or higher”. In the case of `O=C1CC(c2ccc(C(F)(F)F)cc2)CC(O)=C1C(=O)Nc1ccc(Oc2ccccc2)cc1` (stereo not shown) [1-54], the “corrected mortality, rating” value is reported as “D or higher”. For `O=C1CC(c2ccc([S+]([O-])C(F)(F)F)cc2)CC(O)=C1C(=O)Nc1ccc(F)cc1` (stereo not shown) [1-211], the “corrected mortality, rating” value was “D or higher”. For `O=C1CC(c2cnco2)CC(O)=C1C(=O)Nc1ccc(F)cc1` (stereo not shown) [1-223], the “corrected mortality, rating” value was “D or higher”. With `O=C1CC(c2ccc(C(F)(F)F)cc2)CC(O)=C1C(=O)Nc1c(Cl)cccc1Cl` (stereo not shown) [1-23] the “corrected mortality, rating” value was “D or higher”. With `O=C1CC(c2ccc(C(F)(F)F)cc2)CC(O)=C1C(=O)Nc1ccc2c(c1)OCO2` (stereo not shown) [1-55] the “corrected mortality, rating” value was “D or higher”. In the case of `O=C1CC(c2ccc(C(F)(F)F)cc2)CC(O)=C1C(=O)Nc1c(F)cccc1F` (stereo not shown) [1-18], the “corrected mortality, rating” value is reported as “D or higher”. `O=C1CC(c2ccc(C(F)(F)F)cc2)CC(O)=C1C(=O)Nc1ccc(Cl)cc1Cl` (stereo not shown) [1-22] was tested, and the “corrected mortality, rating” value was “D or higher”. With `COc1ccc(NC(=O)C2=C(O)CC(c3ccc(C(F)(F)F)cc3)CC2=O)cc1` (stereo not shown) [1-8] the “corrected mortality, rating” value was “D or higher”. For `O=C1CC(c2ccc(C(F)(F)F)cc2)CC(O)=C1C(=O)Nc1cccc(F)c1` (stereo not shown) [1-43], the “corrected mortality, rating” value was “D or higher”. For `O=C1CC(c2ccc(C(F)(F)F)c(Cl)c2)CC(O)=C1C(=O)Nc1ccc(F)cc1` (stereo not shown) [1-3], the “corrected mortality, rating” value was “D or higher”. For `O=C1CC(c2ccc(S(=O)(=O)C(F)(F)F)cc2)CC(O)=C1C(=O)Nc1ccc(F)cc1` (stereo not shown) [1-209], the “corrected mortality, rating” value was “D or higher”. `N#Cc1ccc(NC(=S)C2=C(O)CC(c3ccc(C(F)(F)F)cc3)CC2=O)cc1` (stereo not shown) [1-100] was tested, and the “corrected mortality, rating” value was “D or higher”. In the case of `O=C1CC(c2ccc([N+](=O)[O-])cc2)CC(O)=C1C(=O)Nc1ccc(F)cc1` (stereo not shown) [1-207], the “corrected mortality, rating” value is reported as “D or higher”. In the case of `O=C1CC(c2cc(C(F)(F)F)cc(C(F)(F)F)c2)CC(O)=C1C(=O)Nc1ccc(F)cc1` (stereo not shown) [1-2], the “corrected mortality, rating” value is reported as “D or higher”. With `CS(=O)(=O)c1ccc(C2CC(=O)C(C(=O)Nc3ccc(F)cn3)=C(O)C2)cc1` (stereo not shown) [1-165] the “corrected mortality, rating” value was “D or higher”. `O=C1CC(c2ccc(C(F)(F)F)cc2)CC(O)=C1C(=O)Nc1ccc(F)c(F)c1` (stereo not shown) [1-19] was tested, and the “corrected mortality, rating” value was “D or higher”. `O=C1CC(c2ccc(C(F)(F)F)cc2)CC(O)=C1C(=O)Nc1c(F)c(F)c(F)c(F)c1F` (stereo not shown) [1-45] was tested, and the “corrected mortality, rating” value was “D or higher”. For `O=C1CC(c2ccc(C(F)(F)F)cc2)CC(O)=C1C(=O)Nc1cccc2ncccc12` (stereo not shown) [1-156], the “corrected mortality, rating” value was “D or higher”. In the case of `O=C1CC(c2ccc(OC(F)(F)F)cc2)CC(O)=C1C(=O)Nc1ccc(F)cc1` (stereo not shown) [1-65], the “corrected mortality, rating” value is reported as “D or higher”. `O=C1CC(c2ccc(C(F)(F)F)cc2)CC(O)=C1C(=S)Nc1cccc(C(F)(F)F)c1` (stereo not shown) [1-99] was tested, and the “corrected mortality, rating” value was “D or higher”. In the case of `N#Cc1ccc(C2CC(=O)C(C(=O)Nc3ccc(F)cc3)=C(O)C2)cc1` (stereo not shown) [1-61], the “corrected mortality, rating” value is reported as “D or higher”. For `O=C1CC(c2ccc3c(c2)OCO3)CC(O)=C1C(=O)Nc1ccc(F)cc1` (stereo not shown) [1-222], the “corrected mortality, rating” value was “D or higher”. In the case of `O=C1CC(c2ccc(C(F)(F)F)cc2)CC(O)=C1C(=O)Nc1cccs1` (stereo not shown) [1-40], the “corrected mortality, rating” value is reported as “D or higher”. For `Cc1ccc(C2CC(=O)C(C(=O)Nc3ccc(F)cc3)=C(O)C2)s1` (stereo not shown) [1-76], the “corrected mortality, rating” value was “D or higher”. For `O=C1CC(c2ccc(C(F)(F)F)cc2)CC(O)=C1C(=O)Nc1ccc([S+]([O-])C(F)(F)F)cc1` (stereo not shown) [1-52], the “corrected mortality, rating” value was “D or higher”. In the case of `O=C1CC(c2ccc(C(F)(F)F)cc2)CC(O)=C1C(=O)Nc1ccnc(F)c1` (stereo not shown) [1-147], the “corrected mortality, rating” value is reported as “D or higher”. For `Cc1ccccc1C1CC(=O)C(C(=O)Nc2ccc(F)cc2)=C(O)C1` (stereo not shown) [1-1], the “corrected mortality, rating” value was “D or higher”. For `N#Cc1ccc(NC(=O)C2=C(O)CC(c3ccc(C(F)(F)F)cc3)CC2=O)cc1` (stereo not shown) [1-7], the “corrected mortality, rating” value was “D or higher”. In the case of `O=C1CC(c2ccc(C(F)(F)F)cc2)CC(O)=C1C(=S)Nc1ccc(F)cn1` (stereo not shown) [1-108], the “corrected mortality, rating” value is reported as “D or higher”. With `O=C1CC(c2ccc(SC(F)(F)F)cc2)CC(O)=C1C(=O)Nc1ccc(Cl)cc1` (stereo not shown) [1-235] the “corrected mortality, rating” value was “D or higher”.

The compounds below were run on Laodelphax striatellus (assay: Insecticidal test against Laodelphax striatellus). Details: 500 ppm drug solution; rice seedlings immersed 30 seconds; three-instar insects; eight days after inoculation.
With `O=C1CC(c2ccc(C(F)(F)F)cc2)CC(SCc2ccccc2)=C1C(=O)Nc1ccc(F)cc1` (stereo not shown) [1-225] the “corrected mortality, rating” value was “D or higher”. For `CC(C)NC(=S)C1=C(O)CC(c2ccc(C(F)(F)F)cc2)CC1=O` (stereo not shown) [1-84], the “corrected mortality, rating” value was “D or higher”.
